Results as given in patent US11746103B2, “ALK-5 inhibitors and uses thereof” (Sumitomo Pharma Oncology, Inc., priority 2020, dated 2023).

Key:
[1] = tested on: p-SMAD2 (Ser465/Ser467) in A549 xenograft; assay: Longitudinal PK/PD analysis of p-SMAD2 in A549 xenograft mouse model (PD); assay type: in vivo; details: 75 mg/kg single oral dose; for inhibition at 75 mg/kg: Mus musculus, A549, 4 hours post drug administration, read-out: inhibition of p-SMAD2 compared to the vehicle group
Protocol: In this study, p-SMAD2 (Ser465/Ser467) and a housekeeping gene (GAPDH) were measured at six timepoints from zero (established using vehicle-treated animals) up to twenty-four hours post dose for a single drug dose of seventy-five milligrams per kilogram per subject (three subjects per dosing group).
For this study, xenografts were prepared and implanted in mice as follows. At five weeks of age, female athymic nude mice (purchased from Charles River) were injected with approximately 3.2 million A549 cells (ATCC, CCL-185). Cells were harvested and resuspended in plain RPMI media (no phenol red added) and Matrigel (Corning 356237) at a one-to-one ratio, and two hundred-microliters of the cell suspension were injected into the right hind flank of each mouse. Tumors were measured every three days by caliper, and as tumors reached an average of ninety millimeters cubed, mice were randomized in groups of three. Each of the test compounds (Ex-10 and Ex-11) was resuspended in 1-methyl-2-pyrrolidinone (Sigma, 494496) (10%) plus 20% Solutol (Sigma 42966) in water (90%). The drug suspensions were sonicated for fifteen minutes to generate a fine particle suspension before being given to the test subjects. Subjects were dosed (per oral gavage) with the suspension. A vehicle control group with three mice was used to establish the baseline and timepoint zero of phospho-SMAD-2 in the tumor xenograft. The test compounds were administered to the respective subject groups at seventy-five milligrams per kilogram. Samples were obtained post administration of test compounds at 20 minutes, one hour, two hours, four hours, and twenty-four hours. Tumors were harvested, snap frozen and stored at negative eighty degrees Celsius until further processing. Plasma was collected from all animals by collecting whole blood via cardiac puncture, followed by centrifugation in tubes containing EDTA (BD, microtainer tubes, 365974). A group of three mice receiving vehicle only served as the zero timepoint for both drug groups. The phospho-SMAD-2 levels were determined using the Bio-Plex Pro™ Phospho-Smad2 (Ser465/Ser467) Set (BioRad 171V50019M). The phospho-SMAD-2 levels were normalized to GAPDH (MILLIPLEX MAP GAPDH Total Magnetic Bead MAPmate™, Millipore 46-667MAG) levels from each sample. All analytes were analyzed in a multiplex fashion with the Bio-Plex Pro Cell Signaling Reagent Kit (BioRad 171304006M). Frozen tumor samples (fifteen to thirty milligrams) were lysed in 100 μl lysis buffer, processed in a bead mill tube, and centrifuged. The resulting lysate was used at 1:50 dilution for the assay according to the manufacturer's instructions. Bead suspension was analyzed using the Luminex system (MAGPIX).

ALK-5 = ALK-5 (Homo sapiens (Human), UniProt P36897); assay: LanthaScreen Eu Kinase Binding Assay, ALK-5; details: for IC50: read-out: Kinase Inhibition: ALK5 IC50
How it was run: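 TR-FRET binding assay: compound displaces an ATP-site-directed Alexa Fluor tracer from kinase detected by Eu-labelled anti-tag antibody, lowering FRET. 10-point, 3-fold serial dilutions, 60 min incubation at room temperature, read without development step. Dose-response curves fitted.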

[2] = tested on: TGF-β1 mediated alpha-SMA expression in primary human bronchial fibroblasts derived from IPF patients; assay: Fibroblast to Myofibroblast Transformation (FMT) assay; details: for max PIN of TGF-β1 mediated alpha-SMA expression: in at least two donors
Protocol: To test the ability of compounds of the invention to inhibit the TGF-β1 dependent transition of fibroblasts to myofibroblasts in a relevant disease model of IPF, a study was carried out using an FMT assay employing lung fibroblasts from IPF patients. In this model the transition of fibroblasts to myofibroblasts is determined by the expression of the biomarker alpha smooth muscle actin (SMA).
Each drug concentration condition was evaluated in biological duplicates. One hour after compound addition, cells were stimulated with 1.25 ng/ml of TGF-01 and cultured for 72 hours thereafter. At the end of 72 hours cells were fixed using formaldehyde. The results were generated using high content imaging after staining cells using the nuclear stain DAPI as well as evaluation of the expression of alpha SMA. […] As a negative control 0.1% DMSO was used matching the DMSO concentration in treated wells.

ALK-5, sequence (P36897 34-503): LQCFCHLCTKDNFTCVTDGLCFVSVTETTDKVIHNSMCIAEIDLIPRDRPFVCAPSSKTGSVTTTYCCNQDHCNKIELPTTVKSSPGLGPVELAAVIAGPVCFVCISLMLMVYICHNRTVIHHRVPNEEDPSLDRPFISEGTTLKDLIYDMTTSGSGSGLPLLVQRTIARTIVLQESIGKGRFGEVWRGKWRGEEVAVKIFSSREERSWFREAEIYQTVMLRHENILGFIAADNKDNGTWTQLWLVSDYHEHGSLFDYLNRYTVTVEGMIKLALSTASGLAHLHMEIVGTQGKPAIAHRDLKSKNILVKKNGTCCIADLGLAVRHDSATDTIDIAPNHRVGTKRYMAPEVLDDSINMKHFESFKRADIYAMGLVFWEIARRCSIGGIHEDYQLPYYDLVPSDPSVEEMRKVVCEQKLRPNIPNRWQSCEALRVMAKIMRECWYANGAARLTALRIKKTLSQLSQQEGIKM

| Compound | p-SMAD2 levels at 24 hours post drug administration [1] | inhibition at 75 mg/kg [1] [%] | Kinase Selectivity: ALK2 IC50/ ALK5 IC50 (ALK-5) | IC50 (ALK-5) [nM] | LogM IC50 αSMA ([2]; donor IPF05) [LogM] | Max PIN (%) ([2]; donor IPF05) | potentially toxic (>25% loss of nuclei) ([2]; donor IPF05) | LogM IC50 αSMA ([2]; donor IPF06) [LogM] | Max PIN (%) ([2]; donor IPF06) | LogM IC50 αSMA ([2]; donor IPF08) [LogM] | Max PIN (%) ([2]; donor IPF08) | potentially toxic (>25% loss of nuclei) ([2]; donor IPF08) | max PIN of TGF-β1 mediated alpha-SMA expression [2] | potentially toxic (>25% loss of nuclei) ([2]; donor IPF06) | inhibition of TGF-β-mediated alpha-SMA expression ([2]; in all three donors) |
| --- | --- | --- | --- | --- | --- | --- | --- | --- | --- | --- | --- | --- | --- | --- | --- |
| Cc1cccc2c(Nc3ccnc(Nc4ccc(N5CCOCC5)cc4)n3)cnnc12 [EX-10, N4-(8-methylcinnolin-4-yl)-N2-(4-morpholino-phenyl)-pyrimidine-2,4-diamine] | rose back to baseline levels | 74.3 | (++) (10<ALK2/ALK5<100=[++]) | < 10 | −6.8 | 106.4 | >−5.5 | −6.7 | 110.3 | −7.0 | 100.3 | >−5.5 | greater than 75 |  |  |
| Cc1cccc2c(Nc3ccnc(Nc4cccc(N5CCOCC5)c4)n3)cnnc12 [EX-11, N4-(8-methylcinnolin-4-yl)-N2-(3-morpholinophenyl)pyrimidine-2,4-diamine] | rose back to baseline levels | 92.3 | (++) (10<ALK2/ALK5<100=[++]) | < 10 | −7.2 | 107.2 | >−6.0 | −7.0 | 112.9 | −7.3 | 103.7 | >−6.0 | greater than 75 | >−5.5 | full concentration-dependent inhibition |
